Measured values taken from patent US20210330696A1, “A HIGH CAPACITY PLATFORM FOR IMMUNOGENIC CANCER CELL DEATH” (priority 2018, published 2021).
In brackets after ≈: the same amount, converted by molar mass.

Columns and labels:
[1] = cited from earlier work
[2] = mouse, in vivo; cited from earlier work
glioblastoma cells = conditions: 2 h after injection; cited from earlier work
DNA = conditions: cited from earlier work
cancer cells = conditions: cited from earlier work
tumor immunocytes = tumor immunocytes by flow cytometry after IL-12; type: in vivo; conditions: 24 h after treatment
From the text: FIGS. 21A-B. Tumor immunocytes. A) Flow cytometry dot blots showing gating for myeloid and T cell populations. B) Percent immunocytes in control vs IL-12 treated tumors.
Tumor phenotyping. Flow cytometry and immunohistochemistry are used to characterize PD-L1 expression and the presence of effector and regulatory T cells, myeloid and DC, vascularity and stromal cells in tumors and lymphatic tissue. Immunosuppressive regulators in the tumor include T regulatory (Treg) and […] (MDSC). Tregs (CD4^+/FoxP3^+) and MDSC [CD11b^+/Gr-1(Ly6-CIG)^+] suppress effective antitumor immune responses. CD4^+ and CD8^+ T cells are the primary adaptive immune cell mediators within the tumor and the proportion of T cell subsets and DC present in the tumor plays a critical role in tumor rejection. […] Single cell suspensions are prepared from tumors and spleen. After Fc receptor blockade with anti-CD16/CD32 antibodies in 1% mouse serum/1 mM EDTA, cells are permeabilized for intracellular staining or stained directly with antibodies identifying discrete immune cell populations, as described below. […] Specificity of binding to naïve or memory/effector cells is evaluated using fluorescent antibodies that recognize CD45RA, CCR7, and FOXP3. […] Apoptotic tumor cells are detected using DeadEnd Colorimetric TUNEL System, and proliferating cells will be identified using Ki-67. […]

4T1 tumor = assay: 19F MRI of 4T1 tumor infiltration by myeloid cells (V-Sense); type: in vivo; conditions: 48 h post intratumoral injection, compared to PBS
Procedure: FIG. 17. MR imaging of 4T1 tumor infiltration by myeloid cells. The perfluorocarbon emulsion V-Sense was injected intravascularly and carrier macrophages were imaged by 19F MRI 48 h post control or IL-12 intraturrioral injection.
V-sense is a commercial ^19F-perfluorocarbon emulsion used to track macrophage infiltration into inflammatory tissues. Ahrens et al. (2011) successfully quantified V-sense in inflamed tissues of the central nervous system in an […] model of allergic encephalomyelitis, which they correlated with immunohistochemistry to confirm co-localization of V-sense emulsion droplets and macrophages. Hitchens et al. (2011) detected V-sense labeled macrophages in a model of cardiac allograft rejection. In FIG. 12, the ^19F contrast in tumors is shown based on infiltration of V-sense containing macrophages. In vitro fluorescent imaging confirmed V-sense (red) uptake by RAW macrophages (FIG. 15). […] The color spectrum indicates the concentration of V-sense, which is analogous to phagocytic myeloid cell density.

Molecule: COc1cccc2c1C(=O)c1c(O)c3c(c(O)c1C2=O)C[C@@](O)(C(=O)CO)C[C@@H]3O[C@H]1C[C@H](N)[C@H](O)[C@H](C)O1 [DOX, doxorubicin]
- IC50 [1]: 0.08 µg/mL (≈ 0.147 µM)
- MTD [2]: 6 mg/kg

Molecule: O=c1[nH]c(=O)n([C@@H]2O[C@H](CO)[C@@H](O)[C@@H]2F)cc1[124I] [^124I-FIAU, ^124I-2′-fluoro-2′-deoxy-5-iodo-1-beta-D-arabinofurariosyluracil]
- increase in reporter expression (glioblastoma cells): 28 fold

Molecule: N.N.[Cl][Pt][Cl] [cisplatin, cis-diamminedichloroplatinum (II)]
- DNA adduct formation relative to oxaliplatin (DNA): 10 times
- number of ICD hallmarks stimulated (cancer cells): 2

B1: IL-12: Proinflammatory Th1 cytokine interleukin-12 (protein, UniProt P29459 23-219; P29460 23-328, looked up)
Interleukin-12 subunit alpha: RNLPVATPDPGMFPCLHHSQNLLRAVSNMLQKARQTLEFYPCTSEEIDHEDITKDKTSTVEACLPLELTKNESCLNSRETSFITNGSCLASRKTSFMMALCLSSIYEDLKMYQVEFKTMNAKLLMDPKRQIFLDQNMLAVIDELMQALNFNSETVPQKSSLEEPDFYKTKIKLCILLHAFRIRAVTIDRVMSYLNAS
Interleukin-12 subunit beta: IWELKKDVYVVELDWYPDAPGEMVVLTCDTPEEDGITWTLDQSSEVLGSGKTLTIQVKEFGDAGQYTCHKGGEVLSHSLLLLHKKEDGIWSTDILKDQKEPKNKTFLRCEAKNYSGRFTCWWLTTISTDLTFSVKSSRGSSDPQGVTCGAATLSAERVRGDNKEYEYSVECQEDSACPAAEESLPIEVMVDAVHKLKYENYTSSFFIRDIIKPDPPKNLQLKPLKNSRQVEVSWEYPDTWSTPHSYFSLTFCVQVQGKSKREKKDRVFTDKTSATVICRKNASISVRAQDRYYSSSWSEWASVPCS
- CD4+ and CD8+ T cells in the tumor (tumor immunocytes): increases CD4^+ and CD8^+ T cells
- MDSC in the tumor (tumor immunocytes): decreases MDSC
- frequency of phagocytic cells within the tumor periphery (4T1 tumor): increased the frequency of phagocytic cells
